Source: publication PMC2358886, “Evolution of pharmacologic specificity in the pregnane X receptor” (BMC Evolutionary Biology, 2008)
pEC50: −log10 of the molar value. “Also recorded” adds a separate entry of the source. Read-outs that look alike come from different tables or passages of the source.

Experiments:
mouse PXR = target: T1, mouse PXR (Mus musculus, UniProt O54915)
T1 sequence (O54915 1-431): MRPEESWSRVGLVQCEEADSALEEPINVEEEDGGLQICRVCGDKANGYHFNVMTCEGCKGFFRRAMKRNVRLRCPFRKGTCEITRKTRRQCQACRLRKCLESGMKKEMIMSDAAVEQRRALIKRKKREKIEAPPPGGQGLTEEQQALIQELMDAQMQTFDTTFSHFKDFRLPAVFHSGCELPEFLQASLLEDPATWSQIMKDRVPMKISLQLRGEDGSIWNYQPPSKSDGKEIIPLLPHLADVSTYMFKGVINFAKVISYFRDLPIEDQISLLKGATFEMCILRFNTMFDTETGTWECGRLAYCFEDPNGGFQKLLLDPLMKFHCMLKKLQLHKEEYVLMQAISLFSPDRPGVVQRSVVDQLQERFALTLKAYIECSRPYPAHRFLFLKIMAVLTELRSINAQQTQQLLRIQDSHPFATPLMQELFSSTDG

chicken PXR [1] = target: T2, chicken PXR (Gallus gallus, UniProt Q9DFH3); conditions: for Chicken PXR Activity: -log(EC50), EC50 in molar units
T2 sequence (Q9DFH3 1-391): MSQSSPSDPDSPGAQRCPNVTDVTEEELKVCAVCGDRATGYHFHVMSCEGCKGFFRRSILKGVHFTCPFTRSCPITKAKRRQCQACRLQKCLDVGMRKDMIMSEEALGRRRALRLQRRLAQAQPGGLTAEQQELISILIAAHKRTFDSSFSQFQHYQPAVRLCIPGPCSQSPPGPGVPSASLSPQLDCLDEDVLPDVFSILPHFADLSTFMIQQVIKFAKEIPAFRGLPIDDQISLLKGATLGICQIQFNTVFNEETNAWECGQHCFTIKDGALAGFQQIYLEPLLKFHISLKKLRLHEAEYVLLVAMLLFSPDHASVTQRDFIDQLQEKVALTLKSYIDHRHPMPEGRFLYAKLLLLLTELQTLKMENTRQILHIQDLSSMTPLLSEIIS

rabbit PXR [2] = target: T3, rabbit PXR (Oryctolagus cuniculus, UniProt Q9TU02)
T3 sequence (Q9TU02 1-411): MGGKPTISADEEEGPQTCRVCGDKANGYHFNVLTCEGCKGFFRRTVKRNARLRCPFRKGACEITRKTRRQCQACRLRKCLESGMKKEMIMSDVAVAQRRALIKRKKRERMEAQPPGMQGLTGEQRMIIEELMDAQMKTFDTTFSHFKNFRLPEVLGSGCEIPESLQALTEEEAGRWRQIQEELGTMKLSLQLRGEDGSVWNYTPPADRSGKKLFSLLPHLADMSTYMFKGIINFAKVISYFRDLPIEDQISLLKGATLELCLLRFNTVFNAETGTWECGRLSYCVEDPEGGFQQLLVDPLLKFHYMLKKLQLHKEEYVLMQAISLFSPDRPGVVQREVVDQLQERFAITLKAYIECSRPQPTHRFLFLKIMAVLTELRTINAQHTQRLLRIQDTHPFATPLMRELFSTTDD

rat PXR [3] = target: T4, rat PXR (Rattus norvegicus, UniProt Q9R1A7)
T4 sequence (Q9R1A7 1-431): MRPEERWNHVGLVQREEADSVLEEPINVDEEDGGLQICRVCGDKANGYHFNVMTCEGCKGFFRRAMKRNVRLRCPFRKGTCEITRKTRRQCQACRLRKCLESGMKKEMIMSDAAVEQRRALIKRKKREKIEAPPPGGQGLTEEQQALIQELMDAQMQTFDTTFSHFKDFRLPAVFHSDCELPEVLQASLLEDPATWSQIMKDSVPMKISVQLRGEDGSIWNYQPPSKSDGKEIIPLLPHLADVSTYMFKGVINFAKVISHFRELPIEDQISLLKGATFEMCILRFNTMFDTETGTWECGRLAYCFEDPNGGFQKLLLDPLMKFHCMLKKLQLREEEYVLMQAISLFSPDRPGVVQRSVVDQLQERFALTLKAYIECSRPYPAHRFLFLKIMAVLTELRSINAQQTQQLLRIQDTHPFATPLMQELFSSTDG

chicken PXR [4] = target: T2, chicken PXR; assay: cell-based
Ciona VDR/PXR = assay: Activation of Ciona VDR/PXR (LBD/GAL4 chimeric receptor) luciferase reporter assay; format: cell-based, Ciona intestinalis; conditions: screening, reference maximal activator 20 μM 6-formylindolo-[3,2-b]carbazole
Description: The LBD of Ciona VDR/PXR was cloned from cDNA fragments generously provided by Professors Yuji Kohara and Norituki Satoh, and then inserted into the PM2-GAL4 plasmid to create an LBD/GAL4 chimeric receptor.
The LBD of Xenopus tropicalis (Western clawed frog) PXR (xtPXR) was cloned by PCR from RNA extracted from ovary of an adult female frog. Ciona VDR/PXR was cloned from cDNA fragments ciem829d05 and cilv048e18 provided by Professor Yuji Kohara (Center for Genetic Resource Information, National Institute of Genetics, Research Organization of Information and Systems, Mishima, Japan) and Professor Noriyuki Satoh (Kyoto University, Kyoto, Japan), with analysis of the cDNA clones supported by Grant-in-aid for Scientific Research on Priority Area "Genome" of Ministry of Education, Culture, Sports, Science and Technology, Japan.
The creation of a HepG2 (human liver) cell line stably expressing the human Na^+-taurocholate cotransporter (NTCP) has been previously reported. HepG2-NTCP cells were grown in modified Eagle's medium-α containing 10% fetal bovine serum and 1% penicillin/streptomycin (Invitrogen, Carlsbad, CA, USA). Plasmids containing cDNAs for 8 PXRs from 7 species (human, mouse, rat, rabbit, chicken [also called chicken X receptor, CXR], African clawed frog [also termed Xenopus laevis benzoate X receptors α and β, BXRα and BXRβ ], zebrafish), as well as the reporter constructs tk-UAS-Luc and CYP3A4-PXRE-Luc, and 'empty' vectors pCDNA, PsG5, and PM2 were generously provided by SA Kliewer, JT Moore, and LB Moore (GlaxoSmithKline, Research Triangle Park, NC, USA). […] For the full-length expression vectors, the reporter plasmid was CYP3A4-PXRE-Luc, a construct that contains a promoter element from CYP3A4 (recognized by PXR DBDs) driving luciferase expression. For the GAL4/LBD expression constructs, the reporter plasmid was tk-UAS-Luc, which contains GAL4 DNA binding elements driving luciferase expression. The following transfection ratios of reporter, receptor, and β-galactosidase plasmids were used (ng/well): human, mouse, rabbit, and rat PXRs – 25/2.7/20; chicken PXR – 10/1/20; Xenopus tropicalis PXR, zebrafish PXR, and Ciona VDR/PXR – 75/50/20.
The PXR activation assay was a luciferase-based reporter assay. On day 1, 30,000 cells/well were seeded onto 96-well white opaque plates (Corning-Costar, Corning, NY, USA). On day 2, cells were transfected using the calcium phosphate precipitation method with expression vector or 'empty' control vector and luciferase reporter plasmid. On day 3, the cells were washed and then incubated with medium containing charcoal-dextran treated fetal bovine serum (Hyclone, Logan, UT, USA) and drugs or vehicle. On day 4, the cells were washed and the medium replaced with serum-free medium. […]

human PXR [5] = target: T5, human PXR (Homo sapiens, UniProt O75469); assay: PXR activation luciferase reporter assay, human PXR in HepG2-NTCP cells; conditions: hPXR Activity, -log(EC50), EC50 in molar units, activation of human PXR
T5 sequence (O75469 1-434): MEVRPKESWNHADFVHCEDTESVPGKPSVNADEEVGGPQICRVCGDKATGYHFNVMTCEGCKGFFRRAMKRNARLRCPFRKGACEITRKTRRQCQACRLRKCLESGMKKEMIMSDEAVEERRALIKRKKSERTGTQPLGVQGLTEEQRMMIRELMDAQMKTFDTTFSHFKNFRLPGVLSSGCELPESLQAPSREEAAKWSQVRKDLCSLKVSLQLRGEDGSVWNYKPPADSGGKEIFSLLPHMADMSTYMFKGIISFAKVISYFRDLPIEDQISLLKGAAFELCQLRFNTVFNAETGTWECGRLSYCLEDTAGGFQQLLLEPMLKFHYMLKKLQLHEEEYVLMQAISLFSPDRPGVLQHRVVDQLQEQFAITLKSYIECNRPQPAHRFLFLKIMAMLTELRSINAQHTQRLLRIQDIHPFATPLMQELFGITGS

zebrafish PXR [6] = target: T6, zebrafish PXR (Danio rerio, UniProt A5WYG8)
T6 sequence (A5WYG8 144-430): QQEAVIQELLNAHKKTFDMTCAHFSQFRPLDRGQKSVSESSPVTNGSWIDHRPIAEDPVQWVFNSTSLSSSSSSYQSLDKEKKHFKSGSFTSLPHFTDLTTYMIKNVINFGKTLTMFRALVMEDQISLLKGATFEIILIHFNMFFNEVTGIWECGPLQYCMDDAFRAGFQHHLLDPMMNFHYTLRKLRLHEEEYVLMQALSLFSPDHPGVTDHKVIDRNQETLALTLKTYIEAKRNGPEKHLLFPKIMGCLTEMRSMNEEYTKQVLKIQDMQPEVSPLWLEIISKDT

human PXR [7] = target: T5, human PXR
rabbit PXR [8] = target: T3, rabbit PXR; assay: PXR activation luciferase reporter assay, rabbit PXR; conditions: -log(EC50), EC50 in molar units
chicken PXR [9] = target: T2, chicken PXR; assay: in vitro
zebrafish PXR [10] = target: T6, zebrafish PXR; assay: cell-based
rat PXR [11] = target: T4, rat PXR; assay: cell-based
Xenopus tropicalis PXR = assay: Activation of Xenopus tropicalis PXR (GAL4-LBD chimeric construct) luciferase reporter assay; format: cell-based
Description: Cloning of the LBD of this PXR from adult female ovary and expression in a GAL4-LBD chimeric construct allowed for determination of ligand specificity.
The PXR activation assay was a luciferase-based reporter assay [17, 45]. On day 1, 30,000 cells/well were seeded onto 96-well white opaque plates (Corning-Costar, Corning, NY, USA). On day 2, cells were transfected using the calcium phosphate precipitation method with expression vector or 'empty' control vector and luciferase reporter plasmid. On day 3, the cells were washed and then incubated with medium containing charcoal-dextran treated fetal bovine serum (Hyclone, Logan, UT, USA) and drugs or vehicle. […]

[12] = -log(EC50), EC50 in molar units, activation of zebrafish PXR
[13] = -log(EC50), EC50 in molar units

For C[C@H](CCC(=O)O)[C@H]1CC[C@H]2[C@@H]3C[C@@H](O)[C@@H]4C[C@H](O)CC[C@]4(C)[C@H]3CC[C@]12C [BI004, Murideoxycholic acid], the “Mouse PXR Activity” value (mouse PXR) was 5.09, the “Chicken PXR Activity” value (chicken PXR [1]) was “No effect” and the “Rabbit PXR Activity” value (rabbit PXR [2]) was 4.52. The “Rat PXR Activity” value (rat PXR [3]) was 4.80.
For C[C@H](CCC(=O)O)[C@H]1CC[C@H]2[C@@H]3[C@H](O)C[C@@H]4C[C@H](O)CC[C@]4(C)[C@H]3CC[C@]12C [BI005, Chenodeoxycholic acid], the “Chicken PXR efficacy, ε” value (chicken PXR [1]; chicken) was 4.70 (ε = 0.36), the “Rabbit PXR efficacy, ε” value (rabbit PXR [2]; rabbit) was 4.70 (ε = 0.42) and the “Rat PXR Activity” value (rat PXR [3]) was “No effect”. It also gave a pEC50 (chicken PXR [4]) of 4.70.
For 6-formylindolo-[3,2-b]carbazole, the “Activation of Ciona VDR/PXR (in words)” value (Ciona VDR/PXR) was “low micromolar range; also recorded: robustly activated”.
With NC(=O)N1c2ccccc2C=Cc2ccccc21 [MI7, Carbamazepine] the Toxicity (HepG2 cells; human, 24 hr) was 200 µM, the “Activation of Ciona VDR/PXR (in words)” value (Ciona VDR/PXR) was “micromolar range; also recorded: Weaker activation” and the pEC50 (human PXR [5]) was 4.20. For the same compound, the “zfPXR Activity” value (zebrafish PXR [6]) was “None”.
In the case of CC(CCC[C@@H](C)[C@H]1CC[C@H]2[C@@H]3[C@H](O)C[C@@H]4C[C@H](O)CC[C@]4(C)[C@H]3C[C@H](O)[C@]12C)C(=O)NCCS(=O)(=O)O (stereo partly drawn) [BI038, 3α,7α,12αtTrihydroxy-5β-cholestan-27-oic acid, taurine conjugated], the “hPXR Activity” value (human PXR [7]) was “None”, the “Mouse PXR Activity” value (mouse PXR) was “No effect” and the “Chicken PXR Activity” value (chicken PXR [1]) was “No effect”. For the same compound, the “Rabbit PXR Activity” value (rabbit PXR [2]) was “No effect”, the “Rat PXR Activity” value (rat PXR [3]) was “No effect” and the Toxicity (HepG2 cells) was 200 µM. The “zfPXR Activity” value (zebrafish PXR [6]; [12]) was “None”.
C[C@H](CCC(O)C(CO)COS(=O)(=O)O)[C@H]1CC[C@H]2[C@@H]3[C@H](O)C[C@@H]4C[C@H](O)CC[C@]4(C)[C@H]3C[C@H](O)[C@]12C (stereo partly drawn) [BI034, 5β-Cholestan-3α,7α,12α,24,26-pentol-27-sulfate] was tested, and the “hPXR Efficacy” value (human PXR [7]) was 0.39, the “Mouse PXR efficacy, ε” value (mouse PXR) was 0.85 and the “Mouse PXR Activity” value (mouse PXR; [13]) was 4.44. The “Chicken PXR efficacy, ε” value (chicken PXR [1]) was 0.88, the “Chicken PXR Activity” value (chicken PXR [1]) was 4.37 and the “Rabbit PXR efficacy, ε” value (rabbit PXR [2]) was 1.93. The “Rat PXR efficacy, ε” value (rat PXR [3]) was 0.85, the “Rat PXR Activity” value (rat PXR [3]; [13]) was 4.40 and the Toxicity (HepG2 cells) was 200 µM. The “Rabbit PXR Activity” value (rabbit PXR [8]) was 4.09, the “zfPXR Efficacy” value (zebrafish PXR [6]) was 0.13 and the “zfPXR Activity” value (zebrafish PXR [6]; [12]) was 4.35. The “Activation of zebrafish PXR (in words)” value (zebrafish PXR [6]; bile salts) was “activated”.
CCCCOC(=O)c1ccc(N)cc1 [MI4, n-Butyl-4-aminobenzoate] was tested, and the “hPXR Efficacy” value (human PXR [7]; human) was 1.35, the pEC50 (chicken PXR [9]) was under 4.00 and the pEC50 (zebrafish PXR [10]) was 4.86. The Toxicity (HepG2 cells; human, 24 hr) was 100 µM, the “Activation of Ciona VDR/PXR (in words)” value (Ciona VDR/PXR; listed as n-butyl p-aminobenzoate) was “Weaker activation” and the “Activation of Ciona VDR/PXR (in words)” value (Ciona VDR/PXR; listed as n-butyl-p-aminobenzoate) was “micromolar range”. The pEC50 (rat PXR [11]) was under 4.00, the “zfPXR Efficacy” value (zebrafish PXR [6]; zebrafish) was 0.69 and the “Activation of Xenopus tropicalis PXR (in words)” value (Xenopus tropicalis PXR) was “activates”.
